# Conditions: not given
row,Compound,solubility
1,O=C1c2ccccc2C(=O)c2c1ccc(O)c2O,1.67 mM
2,COC(=O)c1cc(O)c(O)c(O)c1,57.6 mM
3,CN(C)C(=O)OC1=CC(=O)CC(C)(C)C1,142 mM
4,Cn1c(=O)[nH]c2[nH]c(=O)[nH]c2c1=O,27.5 mM
5,Nc1nc(=O)c2[nH]c(=O)c(=O)[nH]c2[nH]1,0.00683 mM
6,c1ccc2c(c1)-c1cccc3c1c-2cc1ccccc13,5.94e-06 mM
7,O=C(O)c1cc(Cl)cc(Cl)c1,0.77 mM
8,CC[C@H](Br)C(=O)O,419 mM
9,Cc1ccc(C(=O)O)cc1C,0.86 mM

# Same assay, conditions: 20 °C
row,Compound,solubility
1,COC(=O)C(C)N(C(=O)c1ccco1)c1c(C)cccc1C (configuration not stated),0.763 mM
2,O=c1[nH]c(=O)c2[nH]c(=O)[nH]c2[nH]1,0.353 mM
3,Cc1ccccc1OCC(O)CO (configuration not stated),64.8 mM
4,CCc1ccc(CC)cc1,0.185 mM
5,C[C@H](CCC(=O)O)[C@H]1CC[C@H]2[C@@H]3[C@@H](O)C[C@@H]4C[C@H](O)CC[C@]4(C)[C@H]3CC[C@]12C,0.108 mM
6,CCOC(=O)C(c1c(O)c2ccccc2oc1=O)c1c(O)c2ccccc2oc1=O,0.375 mM
7,N#CCC(N)=O,1550 mM
8,CCCCOC(=O)CCC,3.47 mM
9,OC[C@H]1O[C@@H](n2cnc3c(O)ncnc32)[C@H](O)[C@@H]1O,58.9 mM
10,O=C(O)c1cnc(O)nc1O,11.5 mM
11,CCC(Cl)[N+](=O)[O-] (configuration not stated),64.8 mM
12,O=c1cc(O)cc[nH]1,56.3 mM
13,CCOP(=O)(OCC)SCC(=O)NC(C)(C)C#N,238 mM
14,N[C@H](CCCC(=O)O)C(=O)O,13.7 mM
15,C=CCOC(=O)c1ccccc1C(=O)OCC=C,0.739 mM
16,Cc1nc(NS(=O)(=O)c2ccc(N)cc2)oc1C,6.27 mM
17,CNCC(=O)O,3370 mM
18,O=c1ccc2ccccc2o1,13 mM
19,CCCCI,1.1 mM
20,C[C@@H]1CN[C@@H](C)CN1,3060 mM
21,COc1ccc(Oc2ccc(NC(=O)N(C)C)cc2)cc1,0.0699 mM
22,Clc1ccc(-c2cc(Cl)ccc2Cl)c(Cl)c1,0.000267 mM
23,c1ccc2c(c1)cnc1ccccc12,1.67 mM
24,COc1ccc2c3c1O[C@H]1[C@@H](O)C=C[C@H]4[C@@H](C2)N(C)CC[C@@]341,30.1 mM
25,O=C(O)CN(CP(=O)(O)O)CP(=O)(O)O,943 mM
26,O=C1C=C2CC3(O)COc4c(ccc(O)c4O)C3=C2C=C1O (configuration not stated),2 mM
27,CON(C)C(=O)Nc1ccc(Br)c(Cl)c1,0.119 mM
28,CC(=O)CC1CCCCN1 (configuration not stated),354 mM
29,Clc1ccc(-c2ccccc2Cl)cc1Cl,0.000516 mM

# Same assay, conditions: 21 °C
row,Compound,solubility
1,O=C(O)CCCCCCCCCC(=O)O,23.6 mM
2,NC(=S)c1c(Cl)cccc1Cl,4.61 mM
3,O=C(O)CCCCCCCCCCCCC(=O)O,0.774 mM

# Same assay, conditions: 22 °C
row,Compound,solubility
1,CCOP(=S)(OCC)N1C(=O)c2ccccc2C1=O,0.444 mM
2,CCSC(=O)N(CC(C)C)CC(C)C,0.207 mM
3,O=C1NC(=O)C(c2ccccc2)(c2ccccc2)N1,0.127 mM
4,CNC(=O)ON=C(CSC)C(C)(C)C,23.8 mM
5,OCc1ccccc1O,507 mM
6,CCOC(=O)C(=O)C(=O)OCC,3250 mM

# Same assay, conditions: 23 °C
row,Compound,solubility
1,Clc1ccccc1-c1cc(Cl)c(Cl)c(Cl)c1Cl,5.17e-05 mM
2,Nc1ccc(C(=O)O)c(O)c1,11 mM

# Same assay, conditions: 24 °C
row,Compound,solubility
1,CC(=O)OCCN1CCN(CCCN2c3ccccc3Sc3ccc(Cl)cc32)CC1,0.02 mM
2,CN1CCCC(CN2c3ccccc3Sc3ccccc32)C1 (configuration not stated),0.018 mM
3,O=C(O)c1c2ccccc2cc2ccccc12,0.382 mM
4,CNCCCN1c2ccccc2CCc2ccccc21,0.22 mM
5,Nc1cccc2nc3ccccc3cc12,0.06 mM

# Same assay, conditions: 25 °C
row,Compound,solubility
1,Brc1ccc(Br)cc1,0.0848 mM
2,O=C(O)c1ccccc1F,51.4 mM
3,CCOC(=O)C=Cc1ccccc1,1.01 mM
4,Clc1cc(Cl)c(Cl)c(Cl)c1,0.0236 mM
5,c1ccc2[nH]ccc2c1,30.4 mM
6,CCCCCCCCN,1.55 mM
7,CSCCC(N)C(=O)O (racemic),331 mM
8,C=CCc1ccc(O)c(OC)c1,27.4 mM
9,CCCCC1(CC)C(=O)NC(=O)NC1=O,23 mM
10,O=C(O)c1cccc(Br)c1,2 mM
11,CC#CCCCC,1.7 mM
12,COC1=CC(=O)C[C@@H](C)[C@]12Oc1c(Cl)c(OC)cc(OC)c1C2=O,0.0245 mM
13,CC(C)CCOC(=O)c1ccccc1O,0.696 mM
14,O=C(O)COc1ccc(Cl)cc1,5.13 mM
15,CC(Cl)(Cl)C(=O)O,3510 mM
16,O=C(O)c1ccc([N+](=O)[O-])cc1[N+](=O)[O-],85.8 mM
17,CCC(C)(C)CC,0.0591 mM
18,C[C@@H]1CC[C@@]2(OC1)O[C@H]1C[C@H]3[C@@H]4CC=C5C[C@@H](O)CC[C@]5(C)[C@H]4CC[C@]3(C)[C@H]1[C@@H]2C,4.82e-05 mM
19,Nc1ccc(S(=O)(=O)Nc2ncccn2)cc1,0.308 mM
20,Clc1cc(Cl)c2c(c1Cl)Oc1ccccc1O2,2.92e-05 mM
21,CCCCCCc1ccccc1,0.00556 mM
22,C=CCC1(CC(C)C)C(=O)NC(=O)NC1=O,7.6 mM
23,Cc1ccccc1C(=O)O,8.67 mM

row,Compound,solubility
1,S=C=Nc1cccc(Br)c1,0.0822 mM
2,C=CC1CC=CCC1 (configuration not stated),0.462 mM
3,Clc1cccc(Cl)c1-c1ccccc1,0.0108 mM
4,CCCCCCCCl,0.101 mM
5,COc1ccc2c(c1)N(C[C@H](C)CN(C)C)c1ccccc1S2,0.0609 mM
6,CC(C)[C@@H](N)C(=O)O (racemic),563 mM
7,S=C=NCc1ccccc1,0.73 mM
8,O=C(O)COc1cccc(Cl)c1Cl,1.55 mM
9,COc1c2occc2c(OC)c2c(=O)cc(C)oc12,4 mM
10,c1ccc2c(c1)OCCOCCOc1ccccc1OCCOCCO2,0.0203 mM
11,CCC(O)CC,584 mM
12,CC(C)(C)c1ccccc1,0.22 mM
13,O=C(O)c1cccc(Cl)c1[N+](=O)[O-],2.33 mM
14,c1ccc(CCc2ccccc2)cc1,0.0236 mM
15,CC(C)(OO)c1ccccc1,91.3 mM
16,Ic1cccc2ccccc12,0.0282 mM
17,Clc1cc(-c2cc(Cl)c(Cl)c(Cl)c2Cl)c(Cl)c(Cl)c1Cl,6.33e-07 mM
18,CCC(O)C(C)(C)C (configuration not stated),70.6 mM
19,CC(C)C(C)C,0.261 mM
20,C=C[C@H]1CN2CCC1C[C@@H]2[C@@H](O)c1ccnc2ccccc12 (some centres not stated),0.744 mM
21,CCCCCCC(=O)O,21.6 mM
22,CC1CCCC(C)(C)C1 (configuration not stated),0.014 mM
23,CCOC(=O)c1ccccc1,4.79 mM

row,Compound,solubility
1,Cc1ccccc1N1C(=O)c2cc(S(N)(=O)=O)c(Cl)cc2NC1C (configuration not stated),0.165 mM
2,CCC(C)(C)c1ccccc1,0.0708 mM
3,ONc1ccccc1,259 mM
4,CCC(C)c1ccccc1 (configuration not stated),0.131 mM
5,Cc1cccc(O)c1C,37.4 mM
6,COc1ccccc1,9.62 mM
7,CNc1ccccc1,52.4 mM
8,Clc1c(Cl)c(Cl)c(-c2ccccc2)c(Cl)c1Cl,1.23e-05 mM
9,O=C(O)c1cc(Cl)ccc1[N+](=O)[O-],48 mM
10,CCC(C(=O)O)C(=O)O,5390 mM
11,O=[N+]([O-])O[C@H]1CO[C@H]2[C@@H]1OC[C@H]2O[N+](=O)[O-],2.33 mM
12,Cc1ccc(C(=O)O)cc1,2.5 mM
13,Clc1cccc(-c2cc(Cl)ccc2Cl)c1,0.000982 mM
14,CCC(C)(C)CO,74.4 mM
15,CN(C)[C@@H]1C(O)=C(C(N)=O)C(=O)[C@@]2(O)C(O)=C3C(=O)c4c(O)cccc4[C@@](C)(O)[C@H]3[C@H](O)[C@@H]12,0.68 mM
16,C=CCN(CC=C)C(=O)CCl,113 mM
17,C#CCCCCCC,0.218 mM
18,O=[N+]([O-])c1cc(C2CCCCC2)c(O)c([N+](=O)[O-])c1,0.0563 mM
19,Clc1ccc2c(c1)Oc1cc(Cl)ccc1O2,6.6e-05 mM
20,Cc1ccccc1S(N)(=O)=O,9.46 mM
21,CC(C)C(O)C(C)C,60.2 mM
22,Clc1ccc(Cl)c(-c2cc(Cl)ccc2Cl)c1,5.24e-05 mM
23,O=C(O)c1ccc(F)cc1,8.56 mM

row,Compound,solubility
1,CN(C)C(=O)N[C@@H]1C[C@@H]2C[C@H]1[C@@H]1CCC[C@H]21,0.675 mM
2,CCCOP(=O)(OCCC)Oc1ccc(SC)cc1,0.411 mM
3,COc1ccc(C(O)(c2cncnc2)C2CC2)cc1 (configuration not stated),2.54 mM
4,C#CC(C)(C)NC(=O)c1cc(Cl)cc(Cl)c1,0.0586 mM
5,C#CCCCC,4.73 mM
6,Clc1cc(Cl)cc(-c2cc(Cl)cc(Cl)c2)c1,4.22e-06 mM
7,Cc1cc(Cl)ccc1OCC(=O)O,3.14 mM
8,COc1ccc2c(c1OC)C(=O)O[C@@H]2[C@H]1c2c(cc3c(c2OC)OCO3)CCN1C,0.449 mM
9,O=C(O)c1cc([N+](=O)[O-])cc([N+](=O)[O-])c1,6.37 mM
10,Nc1ccc(S(=O)(=O)Nc2nccs2)cc1,3.76 mM
11,Cc1cnc2c(ccc3c(C)c(C)cnc32)c1C,0.00639 mM
12,C[C@H]1c2cccc(O)c2C(=O)C2=C(O)[C@]3(O)C(=O)C(C(N)=O)=C(O)[C@@H](N(C)C)[C@@H]3[C@@H](O)[C@@H]21,1.42 mM
13,CCC(C)c1ccc(O)cc1 (configuration not stated),6.39 mM
14,N#CNC(=N)N,491 mM
15,COP(=S)(OC)SCCSC(C)C,0.373 mM
16,C=CCCCCCCC,0.00887 mM
17,Cc1cccc2c1Cc1ccccc1-2,0.00605 mM
18,C1=CC=CCC=C1,6.73 mM
19,C=CCCCCCC,0.0365 mM
20,Cc1cccc2c(C)cccc12,0.0175 mM
21,c1ccc2c(c1)Oc1ccccc1O2,0.00489 mM
22,O=c1cc[nH]c(=O)[nH]1,32.1 mM
23,O=C(O)c1ccccc1C(=O)Nc1cccc2ccccc12,0.687 mM

# Same assay, conditions: 27 °C
row,Compound,solubility
1,CCCCOC=O,74 mM
2,C#C[C@]1(O)CC[C@H]2[C@@H]3CCC4=CC(=O)CC[C@]4(C)[C@H]3CC[C@@]21C,0.0022 mM

# Same assay, conditions: 30 °C
row,Compound,solubility
1,COP1(=S)OCc2ccccc2O1 (configuration not stated),0.268 mM
2,ClC(Cl)Br,18.5 mM
3,COc1cnc(NS(=O)(=O)c2ccc(N)cc2)nc1,2.6 mM
4,CCOC(=O)C1(c2ccccc2)CCN(C)CC1,13 mM
5,CCCCCCCCCCC(=O)O,0.28 mM
6,C=CCCCCCCCCC(=O)O,0.4 mM
7,COc1ccccc1C(=O)O,32.9 mM
8,Cc1cccc([N+](=O)[O-])c1,3.65 mM
9,C/C=C/C=C/C(=O)O,22.3 mM

# — the OPERA property sets (Mansouri et al. 2018)
